Laboratory results: PubChem BioAssay AID2060609 (Molecular Pharmacology Branch, DTP, NCI, 2025)

Test system: 855422-203-R-J1-PDC complex spheroids, viability
Assay: Anticancer human tumor 855422-203-R-J1-PDC patient-derived bladder carcinoma cell line growth inhibition [CLK]
Conditions: for IC50: curve of first compound; for viability, T/C: stronger effect = lower value
Procedure, shortened: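 Multi-cell-type spheroids combined patient-derived tumor cells with HUVEC endothelial cells and human mesenchymal stem cells. Paired agents were dosed in half-log steps down from about clinical Cmax, or from 10 microM where Cmax was unknown.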
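Further: spheroids exposed to drugs for seven days before readout.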
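Wherever viability, T/C is given: 100% = DMSO vehicle control wells.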

C=CC(=O)Nc1cc(Nc2nccc(-c3cn(C)c4ccccc34)n2)c(OC)cc1N(C)CCN(C)C + CN1CCN(c2cc(C(=O)Nc3cc4cc(-c5cnn(C)c5)ccc4cn3)ccn2)CC1
IC50 (second compound 0.0316 µM): > 300 nM | IC50 (second compound 0.1 µM): > 300 nM | IC50 (second compound 0.316 µM): < 0.949 nM | IC50 (second compound 1 µM): < 0.949 nM | IC50 (second compound 3.16 µM): < 0.949 nM | IC50 (second compound 10 µM): < 0.949 nM | viability, T/C (second compound 0.0316 µM, first compound 0.000949 µM): 104% | viability, T/C (second compound 0.0316 µM, first compound 0.003 µM): 88.3% | viability, T/C (second compound 0.0316 µM, first compound 0.00949 µM): 112% | viability, T/C (second compound 0.0316 µM, first compound 0.03 µM): 102% | viability, T/C (second compound 0.0316 µM, first compound 0.0949 µM): 97.6% | viability, T/C (second compound 0.0316 µM, first compound 0.3 µM): 91.4% | viability, T/C (second compound 0.1 µM, first compound 0.000949 µM): 79.1% | viability, T/C (second compound 0.1 µM, first compound 0.003 µM): 80.4% | viability, T/C (second compound 0.1 µM, first compound 0.00949 µM): 85.8% | viability, T/C (second compound 0.1 µM, first compound 0.03 µM): 91.7% | viability, T/C (second compound 0.1 µM, first compound 0.0949 µM): 74.8% | viability, T/C (second compound 0.1 µM, first compound 0.3 µM): 64.5% | viability, T/C (second compound 0.316 µM, first compound 0.000949 µM): 7.04% | viability, T/C (second compound 0.316 µM, first compound 0.003 µM): 9.27% | viability, T/C (second compound 0.316 µM, first compound 0.00949 µM): 8.35% | viability, T/C (second compound 0.316 µM, first compound 0.03 µM): 11.4% | viability, T/C (second compound 0.316 µM, first compound 0.0949 µM): 8.34% | viability, T/C (second compound 0.316 µM, first compound 0.3 µM): 7.28% | viability, T/C (second compound 1 µM, first compound 0.000949 µM): 0.18% | viability, T/C (second compound 1 µM, first compound 0.003 µM): 0.31% | viability, T/C (second compound 1 µM, first compound 0.00949 µM): 0.54% | viability, T/C (second compound 1 µM, first compound 0.03 µM): 0.25% | viability, T/C (second compound 1 µM, first compound 0.0949 µM): 1.14% | viability, T/C (second compound 1 µM, first compound 0.3 µM): 0.46% | viability, T/C (second compound 3.16 µM, first compound 0.000949 µM): 0.7% | viability, T/C (second compound 3.16 µM, first compound 0.003 µM): 0.52% | viability, T/C (second compound 3.16 µM, first compound 0.00949 µM): 0.64% | viability, T/C (second compound 3.16 µM, first compound 0.03 µM): 0.46% | viability, T/C (second compound 3.16 µM, first compound 0.0949 µM): 0.68% | viability, T/C (second compound 3.16 µM, first compound 0.3 µM): 0.93% | viability, T/C (second compound 10 µM, first compound 0.000949 µM): 0.4% | viability, T/C (second compound 10 µM, first compound 0.003 µM): 1.47% | viability, T/C (second compound 10 µM, first compound 0.00949 µM): 0.52% | viability, T/C (second compound 10 µM, first compound 0.03 µM): 0.85% | viability, T/C (second compound 10 µM, first compound 0.0949 µM): 0.58% | viability, T/C (second compound 10 µM, first compound 0.3 µM): 0.28%
